Series [1] has as its system hepatoma carcinoma cells H22. The series can be described thus: in vivo tumor model, subcutaneous H22 tumor in Kunming mice. The conditions noted are these: for tumor inhibition rate: experimental group 2: peritoneal injection of DMSO solution, 0.3 mg/kg BW every other day, 10 days, tumor volume on the fortieth day. On the procedure: The Kunming mice (in China) were randomly divided into groups, with 10 mice in each group. The cultivated hepatoma carcinoma cells H22 were inoculated subcutaneously in the oxter of the mice with 200 μL/mouse. After bearing the cancer cells for five days, the subcutaneous tumor was formed. Then the compound 3-thiomorpholinyl-8-oxo-8H-acenaphtho[1,2-b]pyrrole-9-carbonitrile and γ-cyclodextrin inclusion compound thereof were given by peritoneal injection, and the compound to be detected included by γ-cyclodextrin was given by oral administration. The detection conditions comprise:
Blank control group: the mice were not treated in any manner after the bearing cancer;
Control group (1): the mice were given a peritoneal injection of DMSO solution every other day after the bearing cancer, 10 days in total;
Control group (2): the mice were given a peritoneal injection of cyclodextrin solution every other day after the bearing cancer, 10 days in total;
Experimental group (1): the mice were given a peritoneal injection of DMSO solution equivalent to 0.03 mg/kg BW compound every other day after the bearing cancer, 10 days in total;
Experimental group (2): the mice were given a peritoneal injection of DMSO solution equivalent to 0.3 mg/kg BW compound every other day after the bearing cancer, 10 days in total;
Experimental group (3): the mice were given a peritoneal injection of inclusion compound water solution equivalent to 0.3 mg/kg BW compound every other day after the bearing cancer, 10 days in total;
Experimental group (4): the mice were given an intragastric administration of inclusion compounds water solution equivalent to 0.3 mg/kg BW compound every other day after the bearing cancer, 10 days in total;
During the experimental period, the length-diameter (a) and short diameter (b), which was perpendicular to the length-diameter, of the tumor were detected twice every week. The gross tumor volume was determined according to the formula: ½ab^2. The survival time of the animal was observed. The tumor inhibition rate was calculated by the tumor volume on the fortieth day.

The target in series [2] is GST-Bcl-2 protein. As to the kind of experiment: fluorescence polarization assay, competitive binding against FAM-Bid peptide. Conditions: GST-Bcl-2 40 nM, FAM-Bid 5 nM, 4 hours of incubation; read-out: competitive binding constant (Ki). On the procedure:
(§1) A Bid BH3 peptide (amino acids: 79-99: […]) having 21 amino acids was synthesized and marked with 6-carboxyfluorescein N-succinimidyl ester (FAM) as fluorescent tag (FAM-Bid) at the N-terminal. The reaction system used in the competitive binding experiment was GST-Bcl-2 protein (40 nM) or Mcl-1 protein, which was dissolved in the reaction buffer (100 mM K3PO4, pH 7.5; 100 μg/ml bovine γ albumin; 0.02% sodium azide) together with FAM-Bid polypeptide (5 nM). In a 96-well plate, 100 μL of the reaction system was added into each well. Then 1 μL different concentration of 3-thiomorpholinyl-8-oxo-8H-acenaphtho[1,2-b]pyrrole-9-carbonitrile mother solution to be detected dissolved in DMSO was added thereinto until the final concentration met the experimental design requirements. Meanwhile, two control groups were established, one with the reaction system only contains Bcl-2 or Mcl-1 and FAM-Bid (equivalent to 0% inhibition rate), the other with the reaction system only containing FAM-Bid peptide. After 4 hours of incubation, the 96-well plate was detected by enzyme-labelled meter. The fluorescent polarization value (mP) was tested at […]. Ki value was deduced according to calculation formula. The competitive binding constant between the compound and Bcl-2 was 310 nM.
A general note: In fluorescence polarisation assays a small probe gives low polarisation when free and higher when bound to something large.

For series [3], the target named is T1, interaction between Bcl-2 and Bax (Homo sapiens, UniProt P10415).
T1 construct: expressed in transfected cells; host or cells: Hela cells
T1 sequence (P10415 whole entry): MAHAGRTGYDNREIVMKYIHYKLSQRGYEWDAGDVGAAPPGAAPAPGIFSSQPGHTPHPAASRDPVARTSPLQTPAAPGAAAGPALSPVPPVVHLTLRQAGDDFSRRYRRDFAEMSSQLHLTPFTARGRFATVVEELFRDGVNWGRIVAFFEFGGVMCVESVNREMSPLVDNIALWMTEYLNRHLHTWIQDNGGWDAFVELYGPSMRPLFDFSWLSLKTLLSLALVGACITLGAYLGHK
As to the kind of experiment: intracellular fluorescence polarization energy transfer (FRET), Hela cells transfected with Bcl-2-CFP and Bax-YFP. It is filed as cell-based. The conditions noted are these: for Time for which the compound interfered with the interaction between Bcl-2 and Bax: goes with the concentration of E11; for Concentration at which the compound interfered with the interaction between Bcl-2 and Bax: goes with the time of E12. The protocol:
24 hours later (please refer to FIG. 2), the cells were washed with PBS for three times. The fluorescence value was detected by GENIOS fluorescence enzyme-labelled meter (TECAN, Swiss). In time-dependent experiment, the transfected cells were inoculated in a 6-well plate, after that, 40 μM of the compound was added thereinto. 3, 6 and 24 hours later (FIG. 3), the fluorescence intensities were detected by plate reader. As for the cell group in which only Bcl-2-CFP plasmid was transfected, the values at 475 nm emission wave length and 433 nm excitation wave length were recorded. As for the cell group in which only Bax-YFP plasmid was transfected, the values at 527 nm emission wave length and 505 nm excitation wave length were recorded. […] The ratio of fluorescence intensity at 527 nm and 475 nm emission wave lengths was FRET. The FRET for the control group in which the plasmid was solely transfected was set as 1.0. […] The cellular vitality was detected by MTT method.
Wherein the concentration and time meant that the detected compound interfered with the interaction between Bcl-2 and Bax at the concentration for the time period.

In series [4] the test system is Mcl-1. As to the kind of experiment: Western blotting, inhibition (downregulation) of Mcl-1 in tumor cells, Example 23. It is filed as cell-based. The conditions noted are these: for inhibition against Mcl-1: Western blotting, tumor cells. The protocol: (§2) The interest protein was detected by the corresponding antibody. The expression of the interest protein in the cells was detected by horseradish peroxidase-labeled secondary antibodies in combination with ECL coloration method. […] The concentration of the protein bands in the Western images were carried out semiquantitative analysis and normalization treatment with KODAK Gel Logic 1500 imaging system software.

In the next series the test system is MCF-7 cells. As to the kind of experiment: cytotoxicity depending on BAX/BAK, MTT, MCF-7 cells with or without BAX/BAK interfering plasmid. It is filed as cell-based. Conditions: MCF-7 cells, 48 hours, MTT. On the procedure: 3 ng of BAX/BAK interfering plasmid was transfected into MCF-7 cells by using calcium phosphate coprecipitation method, 24 hours later, the cells were collected. The expressions after the BAX and BAK proteins interfered with RNA was detected by Western, and the cell groups without plasmid transfection were treated similarly and were set as the control group. The transfected cells were inoculated in a 96-well plate (1×10^5 cells/well), the control experiment of the cell group without plasmid transfection was carried out in parallel. The compound 3-thiomorpholinyl-8-oxo-8 H-acenaphtho[1,2-b]pyrrole-9-carbonitrile to be detected was added thereinto according to the concentration gradient designed before the experiment. 48 hours later, the cellular vitality was detected by MTT. The experimental results were shown in FIG. 6, Gossypol as nonspecific BH3 analogue was treated in parallel.

Series [5] has as its system Bcl-2. The series can be described thus: Western blotting, inhibition (downregulation) of Bcl-2 in tumor cells, Example 23. It counts as cell-based. The conditions noted are these: for inhibition against Bcl-2: Western blotting, tumor cells. The protocol: as §2
A general note: A western blot detects proteins with antibodies after separation by electrophoresis.

Series [6] deals with Bcl-2. As to the kind of experiment: Western blotting, compounds compared with cyclodextrin inclusion compounds and complexes, Example 24. It counts as cell-based. The conditions noted are these: Table 9; 10 μM or equivalent of inclusion compound, 24 hours. On the procedure: (§3) The cells were inoculated in a 6-well plate (2×10^5 cells/well). In the compound group, the compound 3-thiomorpholinyl-8-oxo-8H-acenaphtho[1,2-b]pyrrole-9-carbonitrile was dissolved into DMSO until the final concentration reached 10 μM. In the inclusion group, γ-cyclodextrin inclusion, which had been dissolved into water and was equivalent to 10 μM of the compound, was added thereinto. 24 hours later, the cells were washed with PBS for three times, then the cell sample was collected and cracked with 1×10^6/50 μl cell lysis solution (62.5 mM Tris-HCL pH 6.8; 2% SDS; 10% glycerol; 50 mM DTT; 0.01% bromphenol blue) at low temperature, then the solution was centrifuged and the protein supernatant was collected. The sample was boiled at 100° C. for 5 minutes and then was separated by electrophoresis on 12% SDS-PAGE and transferred. The interest protein was detected by the corresponding antibody. The expression of the interest protein in the cells was detected by horseradish peroxidase-labeled secondary antibodies in combination with ECL coloration method. […] The concentration of the protein bands in the Western figures were carried out semiquantitative analysis and normalization treatment with KODAK Gel Logic 1500 imaging system software.

The test system of series [7] is Mcl-1. The series is described as above. It counts as cell-based. The conditions noted are these: Table 8; 10 μM or equivalent of inclusion compound, 24 hours. On the procedure: as §3
For series [8], the target named is T2, GST-Bcl-2 protein (Homo sapiens, UniProt P10415).
T2 construct: fused on or other part: GST tag on Bcl-2
T2 sequence (P10415 whole entry, the tested form may be a part): as the sequence (P10415 whole entry) above
The series can be described thus: fluorescence polarization assay, competitive binding against FAM-Bid peptide. The conditions noted are these: Table 3; FAM-Bid competition; table does not say whether Bcl-2 or Mcl-1; read-out: Binding constant. The protocol:
as §1

The next series relates to Bax protein. The series can be described thus: co-localization between Bax protein and chondriosome, Bax-YFP transfected MCF-7 cells. It counts as cell-based. The protocol: 5 ng of Bax-YFP plasmid was transfected into MCF-7 cells by using calcium phosphate coprecipitation method, 24 hours later, the cells were inoculated in a 6-well plate (0.2×10^6 cells/well), and 10 μM of the compound 3-thiomorpholinyl-8-oxo-8 H-acenaphtho[1,2-b]pyrrole-9-carbonitrile to be detected was added thereinto. 6 hours later, the cells were washed with PBS and hatched away from light with 50 nM Mito Tracker Red CMXRos (chondriosome specific probes; red) for 10 minutes. Then the cells were washed with PBS for three times, and the fluorescent image was scanned with Radiance2000 laser confocal microscopy (Bio-Rad, USA). Meanwhile, dual channel scanning was carried out, one channel was used to scan the green fluorescence of Bax-YFP, and the other channel was used to scan the red fluorescence of the CMXRos probe for indicating the chondriosome. […] When the Bax protein was localized on the chondriosome, the green and red fluorescence was superimposed into orange, as shown in FIG. 4.
Other 8 compounds were detected by the same experimental method as described above. […] Wherein the concentration and time meant that the detected compound simulated the BH3-only protein and driven the BAX to shift towards the chondriosome at the concentration for the time period.

The nature of series [9]: phase solubility experiment (solubility in water before and after cyclodextrin inclusion or complexation). The conditions noted are these: Table 1, compound per se, before inclusion.

`N#CC1=C2C(=NC1=O)c1cccc3c(N4CCSCC4)ccc2c13` [3-thiomorpholinyl-8-oxo-8H-acenaphtho[1,2-b]pyrrole-9-carbonitrile]: in series [1] (compound group, control group 28±2.1 days), the “average life (survival time) of the animal” value is 33 ± 3.1 days. Besides, the tumor inhibition rate in [1] amounted to 22.3%. For the same compound, the Ki on GST-Bcl-2 protein [2] was found to be 310 nM. Further, in [3], the “Time for which the compound interfered with the interaction between Bcl-2 and Bax” value was 3 h; the “Concentration at which the compound interfered with the interaction between Bcl-2 and Bax” value worked out at 2 µM. Further, the “inhibition against Mcl-1” value in the series with Mcl-1 [4] is reported as “had the inhibition against these two proteins”. For the same compound, the “dependence of cytotoxicity on BAX/BAK” value in the series on MCF-7 cells is given as “cytotoxicity of absolute dependence on BAX/BAK”. For the same compound, in the series with Bcl-2 [5], the “inhibition against Bcl-2” value was “had the inhibition against these two proteins”.
Regarding `N#CC1=C2C(=NC1=O)c1ccc(OC3CCOCC3)c3cccc2c13` [4-(tetrahydro-2H-pyranyl-4-oxo)-8-oxo-8H-acenaphtho[1,2-b]pyrrole-9-carbonitrile], the tumor inhibition rate result in series [1] is given as “about 40%”. Moreover, the “downregulation of Mcl-1 protein, semiquantitative analysis (band concentration, control = 1)” value worked out at 0.99 in the series on Mcl-1 [4] (6 hours); 0.99 in the series on Mcl-1 [4] (12 hours); 0.61 in the series with Mcl-1 [4] (18 hours); 0.29 with Mcl-1 [4] (24 hours); 0.80 with Mcl-1 [7]. The “inhibition against Mcl-1” value with Mcl-1 [4] is “had the inhibition against Bcl-2 and Mcl-1 proteins”. Further, the “downregulation of Bcl-2 protein, semiquantitative analysis (band concentration, control = 1)” value in the series on Bcl-2 [6] worked out at 0.77; with Bcl-2 [5] (2 hours) it was 0.71; with Bcl-2 [5] (6 hours), 0.38. In the series with Bcl-2 [5], the “inhibition against Bcl-2” value is “had the inhibition against Bcl-2 and Mcl-1 proteins”.
As for `N#CC1=C2C(=NC1=O)c1c(OCc3cccs3)ccc3cccc2c13` [6-(thienyl-2-methoxy)-8-oxo-8H-acenaphtho[1,2-b]pyrrole-9-carbonitrile], at GST-Bcl-2 protein [8], the Ki stood at 560 nM. In the series with Bax protein (goes with the concentration of E14), the “Time for which the compound drove the BAX to shift towards the chondriosome” value is 6 h. In addition, the “Concentration at which the compound drove the BAX to shift towards the chondriosome” value in the series on Bax protein (goes with the time of E15) turned out to be 10.0 µM. Moreover, the “Time for which the compound interfered with the interaction between Bcl-2 and Bax” value in [3] came to 6 h. Further, in [3], the “Concentration at which the compound interfered with the interaction between Bcl-2 and Bax” value is 10.0 µM. The Solubility of compounds in series [9] stood at 0.35 µM. In addition, the “downregulation of Mcl-1 protein, semiquantitative analysis (band concentration, control = 1)” value in the series on Mcl-1 [4] (6 hours) came to 0.99; in the series on Mcl-1 [4] (12 hours), 0.99; with Mcl-1 [4] (18 hours) it was 0.54; in the series with Mcl-1 [4] (24 hours), 0.33. The “inhibition against Mcl-1” value in the series with Mcl-1 [4] was “had the inhibition against Bcl-2 and Mcl-1 proteins”. Also, the “dependence of cytotoxicity on BAX/BAK” value in the series with MCF-7 cells is “absolute dependence on BAX/BAK”. Also, the “downregulation of Bcl-2 protein, semiquantitative analysis (band concentration, control = 1)” value was found to be 0.69 in the series on Bcl-2 [5] (2 hours) and 0.40 in the series with Bcl-2 [5] (6 hours). Further, the “inhibition against Bcl-2” value with Bcl-2 [5] was “had the inhibition against Bcl-2 and Mcl-1 proteins”.

Values taken from US20110251188A1, “ACENAPHTHO HETEROCYCLE COMPOUNDS, CYCLODEXTRIN INCLUSION COMPOUNDS AND COMPLEXES, AND USES IN THE MANUFACTURES OF BH3 PROTEIN ANALOGUE, BCL-2 FAMILY PROTEIN INHIBITORS THEREOF” (DALIAN UNIVERSITY OF TECHNOLOGY, priority 2008, published 2011).
